The record followed here is patent EP0699074B1, “THROMBIN INHIBITORS” (Merck & Co., Inc., priority 1993, dated 1994).

Structures are written as SMILES.

The experiment deals with human α-thrombin (Homo sapiens, UniProt P00734). Conditions: 4-4 (L at Acg center, later eluting HPLC peak) compared with its diastereomer 4-3 (D). As for the experimental part: Trypsin assays also contained 1 mM CaCl2.
Concentrations of stock solutions of Z-GPR-afc were determined from measurements of absorbance at 380 nm of the 7-amino-4-trifluoromethyl coumarin produced upon complete hydrolysis of an aliquot of the stock solution by thrombin.
Times required to achieve equilibration between enzyme and inhibitor were determined in control experiments. Initial velocities of product formation in the absence (Vo) or presence of inhibitor (Vi) were measured.

For the compound `CNC(=O)C(=O)[C@@H](NC(=O)[C@@H]1CCCN1C(=O)[C@@H](Cc1ccccc1)NC)[C@H]1CC[C@H](N)CC1` [4-4, H-NMe-D-Phe-Pro-t-L-AcgΨ[COCO]-NHMe], the “thrombin inhibitor potency (comparison of the two isomers)” value is reported as “more potent thrombin inhibitor”.
